ChEMBL document CHEMBL3301361, “Experimental in vitro DMPK and physicochemical data on a set of publicly disclosed compounds”

Test: physchem
Conditions: octan-1-ol/water, pH 7.4

SMILES	logD
CC(O)C(C)OC(=O)[C@@H]1CC2c3cccc4c3c(cn4C(C)C)CC2N(C)C1 (some centres not stated)	2.8
CCCNC(=O)c1nnc2c(-c3cncc(C(=O)N4CCC4)c3)cccc2c1N	2.79
Nc1ccc(C2(c3ccc(N)cc3)CCCCC2)cc1	3.2
CC(C)(C)c1ccc(C2=NC(=O)C(CC(=O)O)S2)cc1 (configuration not stated)	-0.1
NC(=O)c1cc([N+](=O)[O-])cc([N+](=O)[O-])c1 [NITROMIDE]	0.81
CC1(C)CC(=O)c2c(nc3ccccc3c2N)C1	3
NC(=O)c1cccc(O[C@H]2C[C@H]3CC[C@@H](C2)N3Cc2ccccc2)c1	1.61
O=C(Cc1c(C(=O)O)[nH]c2ccccc12)Nc1cccc(C(F)(F)F)c1	1.33
Clc1ccc([C@H]2CC=CCNC2)cc1Cl	1.95
NC(=O)c1cccc(O[C@H]2C[C@H]3CC[C@@H](C2)N3CC2CCCCC2)c1	1.55
Nc1nc(Nc2ccc3nc(-c4ccc(F)cc4)cc(N)c3c2)cc(-c2cccc(Cl)c2)n1	2.5
O=C1O[C@]2(CN3CCC2CC3)CN1c1cccs1	0.9
NC(=O)c1cccc(S[C@H]2C[C@H]3CC[C@@H](C2)N3Cc2ccccc2)c1	2.22

Same assay, conditions: octan-1-ol/water, pH 7.4, LogD7.4

SMILES	logD
C[C@@H](NC1=CC(=O)NCC1)c1ccc(Nc2ncc3cc(-c4ccncc4)ccc3n2)cc1	3.02
N#CCc1c[nH]c2ccc(OCc3ccccc3)cc12	3.71
Nc1nc(N)c2cc(Br)ccc2n1	1.78
COc1ccc2c(C)cc(N[C@H]3CCC[C@H](NCc4cccc(OC(F)(F)F)c4)C3)nc2c1	3.61
FC(F)(F)c1nnc2ccc(N3CCCCC3)nn12	3
CNC(=O)c1ccc(Nc2nccc(-c3cnc(C)n3C(C)C)n2)cc1	2.69
COc1cnc(-c2ccccn2)nc1Oc1ccc(F)cc1F	3.1
CCN(CC)S(=O)(=O)c1ccc(NC(=O)[C@@](C)(O)C(F)(F)F)c(Cl)c1	3.66
COc1cc(F)ccc1-c1cncc(CNC(=O)c2cnccn2)c1	2.5
COc1ccc(C(CNC(=O)Nc2ccccc2)N2CCN(C)CC2)cc1 (configuration not stated)	1.5
O=C(c1ccccc1)c1ccc2n1CCC2C(=O)O (configuration not stated) [KETOROLAC]	-0.93
CN1CCOc2cc(COC3CCCCC3)cnc21	3.1
O=C(COCc1ccccc1)Nc1ccc2c(c1)C(=O)C(=O)c1ccccc1-2	3.21
Oc1ccc(-c2ccc3cc(O)ccc3n2)cc1	3.1
O=c1ccc(=O)c2ccccc2[nH]1	1.02
CC(Cc1cccc(CNCCc2c(Cl)cccc2Cl)c1)NC[C@H](O)c1ccc(O)c2[nH]c(=O)sc12 (some centres not stated)	2.41
CCCc1c(C(=O)Nc2cc(C)on2)cnn1-c1ccccc1	3.7
NS(=O)(=O)c1ccc(Nc2nccc(Nc3c(Cl)ccc4c3OCO4)n2)cc1	2.7
CCCC(=O)Nc1ccc2c(c1)C(=O)C(=O)c1ccccc1-2	2.81
COc1cc(F)ccc1-c1cccc(CNC2CCCC2)n1	2.06
CC(C)c1nnc2ccc(-c3ocnc3-c3cc(F)ccc3F)cn12	2.44
Cc1nc(CS(=O)(=O)c2ccccc2)cc(N2CCOCC2)n1	1.07
Fc1cc2[nH]cnc2cc1Cl	2.35
Cc1cc(C)c(C(=O)N[C@@H](Cc2ccc(OCCCNc3ccccn3)cc2)C(=O)O)c(C)c1	0.49
Nc1nc(-c2ccccc2)nn1Cc1ccccc1	1.91

SMILES	logD
CCN(CC)CCOCCOC(=O)C1(c2ccccc2)CCCC1 [CARBETAPENTANE]	1.33
Cc1cccc(C#Cc2ccccc2)n1	3.6
COc1nc(Cl)cnc1NS(=O)(=O)c1cccc2c(N(C)C)cccc12	1.74
COc1cc2ncc(C(N)=O)c(Nc3cc(F)ccc3F)c2cc1OC	2.9
O=C(NNc1cccc(Cl)c1)c1cccnc1Cl	1.87
OC(c1ccccc1)c1cccnc1 (configuration not stated)	1.72
Nc1ccc2[nH]c(Cc3ccc(Oc4ccccc4)cc3)nc2c1	3.8
CC(C)(C)NC(=O)[C@@H]1CN(Cc2cccnc2)CCN1C[C@@H](O)C[C@@H](Cc1ccccc1)C(=O)N[C@H]1c2ccccc2C[C@H]1O	2.9
COc1cc2ncnc(Nc3cccc(C)c3)c2cc1OC	3.5
COc1cc(-c2c(F)ccc3c(N)c(C(=O)NC4CC4)nnc23)c(OC)nn1	2.75
Cc1cc2n[nH]c(=O)n2c2cc(-c3ccncc3)ccc12	2.29
COc1cc(N2CCN(C(C)=O)CC2)ccc1Nc1ncc(Cl)c(-c2cnc3c(C)cccn23)n1	3.2
CC(=O)NC[C@H]1CN(c2ccc(-n3ccnc3)c(F)c2)C(=O)O1	0.7
O=C(O)c1[nH]c2cc(Cl)cc(Cl)c2c1/C=C1\CCN(c2ccccc2)C1=O	1.85
COc1ccc(-c2coc3cc(O)cc(O)c3c2=O)cc1OC	2.8
CC(NC(=O)C1(N)CCN(c2ncnc3[nH]ccc23)CC1)c1ccc(Cl)cc1 (configuration not stated)	2.7
O=c1c(-c2ccc(O)cc2)coc2cc(O)cc(O)c12 [GENISTEIN]	3.06
CCN(CC)CCOc1ccc(N(C)C(=O)c2ccc(-c3ccc(C(F)(F)F)cc3)cc2)cc1OC	3.13
Cc1cnc2nc(SCc3cccc(F)c3F)nc(N[C@H](C)CO)c2n1	3.5
O=C(NCCCN1CCCCC1)C(c1ccccc1)c1ccccc1	1.33
Cc1cc(CNc2ncc(Cl)c(Nc3cc(C)[nH]n3)n2)on1	2.68
CCCCN(CCNC[C@H](O)c1ccc(O)c2[nH]c(=O)sc12)C(=O)CCOCCc1ccccc1	2.51
O=CN1CC=C(c2c(F)cc(N3C[C@H](COc4ccon4)OC3=O)cc2F)CC1	2.01
O=S(=O)(c1ccccc1-c1ccc(CNC2CCOCC2)cc1)N1CCCC1	1.4
CC(N)(COP(=O)(O)O)C(=O)O (configuration not stated)	2.5

SMILES	logD
Oc1nc2ccccc2nc1NCc1ccccc1	3.3
c1ccc(CC2NCCc3ccccc32)cc1 (configuration not stated)	1.89
CC(C)N1CCN[C@@H](CN2CCN(C(=O)Nc3ccc(Cl)c(Cl)c3)CC2)C1	1.92
COc1ccc(C(=O)NCc2cccnc2)cc1C(=O)NCc1cccnc1 [PICOTAMIDE]	1.23
C#CC(C)n1c(=O)c2c(-c3cncn3C)n(Cc3ccnc4ccc(Cl)cc34)nc2n(CC2CC2)c1=O (configuration not stated)	3.59
C[C@H]1O[C@@H](n2cnc3c(N)nc(OCC4CC(F)(F)C4(F)F)nc32)[C@H](O)[C@@H]1O (some centres not stated)	1.42
CN1CCc2c1nc1ccccc1c2NC(=O)Cc1ccccc1	2.8
Cn1ncnc1-c1c2c(=O)n(C)c(=O)n(CC3CC3)c2nn1Cc1ccnc2ccc(Cl)cc12	3.8
C#Cc1cccc(Nc2nc3cc(C(=O)O)ccc3c3cncnc23)c1	0.92
CC(=O)N[C@H](C)c1ccc(Nc2ncc3cc(-c4ccncc4)ccc3n2)cc1	3.18
O=C(NC1Cc2ccccc2N(CC(=O)N2CCC(O)CC2)C1=O)c1cc2cc(Cl)sc2[nH]1 (configuration not stated)	2.86
COc1ccc(Cl)c(Nc2ncnc3cc(OC)cc(OC4CCN(C)CC4)c23)c1	3.6
CN(C)C(=O)N1CCC(C(=O)NCc2cccs2)CC1	1.1
Cn1cnc([N+](=O)[O-])c1Sc1ncnc2nc[nH]c12 [AZATHIOPRINE]	0.19
Cc1cnc2c(N[C@H](C)CO)nc(SCc3cccc(F)c3F)nc2n1	3.55
O=C1CCCCCN1 [CAPROLACTAM]	-0.08
CC(=O)Nc1nc(N)n(-c2ccccc2)n1	-0.2
Nc1ncnc2ccccc12 [4-AMINOQUINAZOLINE]	1.26
CC(NC(=O)C1(N)CCN(c2ncnc3[nH]ccc23)CC1)c1ccc(S(C)(=O)=O)cc1 (configuration not stated)	1
COc1cc2c(Nc3ccc(F)cc3F)c(C(N)=O)cnc2cc1NCCN(C)C	1.71
Cn1c(N)nc(CCc2cccc(-c3ccccc3)c2)cc1=O	3.8
Cc1noc(C)c1CCC1CCN(S(=O)(=O)CC2(N(O)C=O)CCOCC2)CC1	0.9
C[C@@H](NC1=CC(=O)CCC1)c1ccc(Nc2ncc3cc(-c4ccncc4)ccc3n2)cc1	3.17
O=C(O)Cc1csc(-c2ccc(Cl)cc2)n1 [FENCLOZIC ACID]	-0.22
C[C@H]1O[C@@H](n2cnc3c(N)nc(OC(C4CC4)C(F)(F)F)nc32)[C@H](O)[C@@H]1O (some centres not stated)	1.83

SMILES	logD
CC(C)C(NC(=O)Cn1c(-c2cc(F)cc(F)c2)ncc(N)c1=O)C(=O)C(F)(F)F (configuration not stated)	1.38
O=C(CCCc1ccncc1)N1CCN(c2ccc(Cl)cc2Cl)CC1	3.93
C[C@H]1O[C@@H](n2cnc3c(N)nc(OCC45CC6CC(CC(C6)C4)C5)nc32)[C@H](O)[C@@H]1O	3.58
Cc1ccc(NC(=O)c2cccc(C(F)(F)F)c2)cc1NC(=O)c1ccc2ncccc2c1	3.87
O=S(=O)(Nc1cccc2[nH]ncc12)c1cccs1	1.7
O=S(=O)(NCCNc1ncccn1)c1cccc2cnccc12	0.61
Nc1cc2n[nH]c(=O)n2c2cc(-c3ccc[nH]3)ccc12	2.3
NC(=O)Nc1sc(-c2ccc(F)cc2)cc1C(=O)N[C@H]1CCCNC1	1.76
CSc1ncccc1C(=O)Nc1nccs1	1.43
NC(=O)c1cccc(OC2CCN(CC3CC3)CC2)c1	0.49
O=C(COc1ccccc1)N1CCOCC1	0.75
Cc1ccc(-n2c(C)cc(C(=O)NS(=O)(=O)c3ccc(C)cc3)c2C)cc1	2.5
O=c1[nH]n(C(c2ccccn2)C2CC2)c(=O)c2c(O)c3ccc(Cl)cc3nc12 (configuration not stated)	1
Cc1cc(NC(=O)Nc2ccc(Cl)cc2)n(C)n1	2.96
NC(=O)c1sc2nccc(Nc3ccccc3)c2c1N	2.91
Cc1c(-c2ccc(O)cc2)c(=O)oc2cc(O)ccc12	2.8
COc1ccc(C(=O)Nc2cc(NC(=O)c3cccc(N(C)C)c3)ccc2C)cc1OC	3.12
Cc1cnc(-c2ccc(C)c(NC(=O)c3ccc(OCc4ccccn4)cc3)c2)[nH]1	3.19
CC(C)(C)NC(=O)C(c1ccncc1)N(Cc1ccco1)C(=O)c1ccc(-c2ccccc2)[nH]1 (configuration not stated)	4.13
N[C@H](Cc1c[nH]c2ccccc12)C(=O)O [D-TRYPTOPHAN]	-0.92
Cc1ccc(NC(=O)c2cccc(N(C)C)c2)cc1NC(=O)c1ccc(OC(C)C)cc1	3.1
CNc1c(Br)cnc2nc(-c3ccc(OCCCN4CCOCC4)cc3)[nH]c12	2.96
CC(O)(C(=O)Nc1ccc(S(=O)(=O)c2ccccc2)cc1)C(F)(F)F (configuration not stated)	2.98
COc1ccc(Cl)cc1NC(=O)CCS(=O)(=O)c1ccc(Br)cc1	3.4
